Source: PMC5882164, “A novel calcimimetic agent, evocalcet (MT-4580/KHK7580), suppresses the parathyroid cell function with little effect on the gastrointestinal tract or CYP isozymes in vivo and in vitro” (PLoS ONE, 2018)
“And” between values parts separate entries of the source, which are not always exact repeats. Identical values can stand only once. Counter-ions that a name gives are not always drawn.

What was measured:
[1] = tested on: serum PTH; assay: Serum PTH reduction in common marmosets; format: in vivo, common marmoset; parameters: Serum PTH levels: unit not given here
Protocol: The study of effect of evocalcet on emesis in common marmoset was performed by referencing a previously reported method. The marmosets (n = 24) used for this study were housed in cages (460 × 600 × 655 mm) with environmental enrichments (wooden perches, swing, and balls) and acclimated for at least 4 weeks. The marmosets were fasted from evening on the day before administration. […] The serum PTH level was measured using a Porcine Intact PTH ELISA kit (Immutopics, Inc., San Clemente, CA, USA). To evaluate the emetic effects in marmosets, evocalcet (50 or 150 μg/kg) or cinacalcet (1500 or 5000 μg/kg) was orally administered (n = 6/drug, dose down titration, n = 12 in total). The observation of emesis was conducted until 4 h after the administration.

[2] = tested on: gastric emptying; assay: Evaluation of gastric emptying in rats (phenol red); format: in vivo, rat
Protocol: The study of gastric emptying in rats was performed by referencing a previously reported method. […] The rats were divided into eight body-weight-matched groups (n = 8/group). […] Ten minutes later, 0.05 w/v% phenol red, a non-absorbable marker solution (1.5 mL/body), was orally administered. Thirty minutes after the administration of phenol red, the rats were euthanized by cervical dislocation, and the gastric body clamped at the cardiac and pyloric part of the stomach was obtained. The stomach was homogenized by adding 0.1 M NaOH and centrifugated. The supernatant was mixed with 20 w/v% trichloroacetic acid. After centrifugation, the supernatant was mixed with the same volume of 0.5 mol/L NaOH, and the absorbance was measured at 560 nm. The gastric emptying rate was calculated by the following formula: […]=[1-(opticaldensity[[…])]×100

[3] = tested on: serum PTH; assay: Normal rat study: serum PTH level after oral administration; format: in vivo; conditions: normal rats
Protocol: (§1) After acclimatization, rats were divided into nine groups (n = 10/group) matched in terms of body weight, and their serum PTH and calcium levels. Vehicle, 0.5% (w/v) methyl cellulose (Wako Pure Chemical Industries, Ltd.) solution orally administered to vehicle treatment group rats. Evocalcet (0.03, 0.1, 0.3, or 1 mg/kg), or cinacalcet (1, 3, 10, or 30 mg/kg) were suspended in the vehicle solution and orally administered to each drug treatment group. Blood samples were collected from the tail vein before and at 0.5, 2, 4, 6, 8, and 24 h after the oral administration.
(§2) The serum PTH level was measured using a Rat Intact PTH ELISA kit (Immutopics, Inc., San Clemente, CA). The serum calcium, phosphate and BUN levels were measured using an auto analyzer (Hitachi High-Technologies Corporation., Tokyo, Japan) or the following test kits: the Calcium E-test WAKO, the Phospha C-test WAKO, or the Blood Urea nitrogen B-test WAKO (Wako Pure Chemical Industries, Ltd., Osaka, Japan).

[4] = tested on: serum calcium; assay: Normal rat study: serum calcium level after oral administration; format: in vivo; parameters: Serum Ca: unit not given here; conditions: normal rats
Protocol: as §1, §2

[5] = cinacalcet 1 mg/kg oral, 0 h, group mean of 10 rats
[6] = cinacalcet 1 mg/kg oral, 0 h, individual rat
[7] = cinacalcet 1 mg/kg oral, 0.5 h, group mean of 10 rats
[8] = cinacalcet 1 mg/kg oral, 0.5 h, individual rat
[9] = cinacalcet 1 mg/kg oral, 2 h, group mean of 10 rats
[10] = cinacalcet 1 mg/kg oral, 2 h, individual rat
[11] = cinacalcet 1 mg/kg oral, 4 h, group mean of 10 rats
[12] = cinacalcet 1 mg/kg oral, 4 h, individual rat
[13] = cinacalcet 1 mg/kg oral, 6 h, group mean of 10 rats
[14] = cinacalcet 1 mg/kg oral, 6 h, individual rat
[15] = cinacalcet 1 mg/kg oral, 8 h, group mean of 10 rats
[16] = cinacalcet 1 mg/kg oral, 8 h, individual rat
[17] = cinacalcet 1 mg/kg oral, 24 h, group mean of 10 rats
[18] = cinacalcet 1 mg/kg oral, 24 h, individual rat
[19] = cinacalcet 3 mg/kg oral, 0 h, group mean of 10 rats
[20] = cinacalcet 3 mg/kg oral, 0 h, individual rat
[21] = cinacalcet 3 mg/kg oral, 0.5 h, individual rat
[22] = cinacalcet 3 mg/kg oral, 2 h, individual rat
[23] = cinacalcet 3 mg/kg oral, 4 h, individual rat
[24] = cinacalcet 3 mg/kg oral, 6 h, individual rat
[25] = cinacalcet 3 mg/kg oral, 8 h, individual rat
[26] = cinacalcet 3 mg/kg oral, 24 h, individual rat
[27] = single oral dose, vs vehicle group

## C[C@@H](NCCCc1cccc(C(F)(F)F)c1)c1cccc2ccccc12 [cinacalcet, Cinacalcet hydrochloride, reference compound]
[1]; 300 μg/kg, 1 h, individual animals
  Serum PTH levels: 206.7 and 42.9 and 113.4
[1]; 300 μg/kg, 1 h, mean
  Serum PTH levels: 121.0
[1]; 300 μg/kg, 4 h, individual animals
  Serum PTH levels: 384.2 and 103.1 and 100.2
[1]; 300 μg/kg, 4 h, mean
  Serum PTH levels: 195.8
[1]; 300 μg/kg, before administration, individual animals
  Serum PTH levels: 327.6 and 84.8 and 116.8
[1]; 300 μg/kg, before administration, mean
  Serum PTH levels: 176.4
[1]; 500 μg/kg, 1 h, individual animals
  Serum PTH levels: 66.0 and 160.9 and 28.9
[1]; 500 μg/kg, 1 h, mean
  Serum PTH levels: 85.3
[1]; 500 μg/kg, 4 h, individual animals
  Serum PTH levels: 370.0 and 348.3 and 172.2
[1]; 500 μg/kg, 4 h, mean
  Serum PTH levels: 296.8
[1]; 500 μg/kg, before administration, individual animals
  Serum PTH levels: 370.0 and 298.9 and 61.2
[1]; 500 μg/kg, before administration, mean
  Serum PTH levels: 243.4
[1]; oral
  Minimum effective dose on PTH reduction: 0.5 mg/kg
[2]; 100 mg/kg, group mean
  Gastric Emptying: 20.02%
[2]; 100 mg/kg, individual rats
  Gastric Emptying: 7.17% and 20.46% and 31.67% and 44.76% and 1.77% and 30.22% and 22.74% and 1.35%
[2]; cinacalcet 10 mg/kg oral, 30 minutes, group mean, n = 8
  Gastric Emptying: 55.17%
[2]; cinacalcet 10 mg/kg oral, 30 minutes, individual rats
  Gastric Emptying: 44.96% and 61.79% and 57.42% and 52.23% and 44.34% and 52.86% and 67.60% and 60.12%
[2]; cinacalcet 30 mg/kg oral, 30 minutes, group mean, n = 8
  Gastric Emptying: 35.72%
[2]; cinacalcet 30 mg/kg oral, 30 minutes, individual rats
  Gastric Emptying: 28.35% and 14.64% and 23.99% and 37.69% and 38.94% and 32.71% and 40.60% and 68.85%
[2]; oral
  Dose inhibiting gastric emptying relative to the dose required for a significant PTH reduction: approximately 30 fold
[2]; oral, vs vehicle group
  Doses that caused a significant delay in gastric emptying: ≥ 30 mg/kg
[3]; [5]
  Serum PTH: 109.720
[3]; [6]
  Serum PTH: 125.722 and 130.447 and 67.586 and 199.824 and 100.664 and 97.298 and 150.924 and 89.996 and 55.272 and 79.471
[3]; [7]
  Serum PTH: 80.824
[3]; [8]
  Serum PTH: 82.661 and 77.184 and 76.842 and 101.034 and 110.106 and 55.958 and 55.844 and 88.538 and 77.412
[3]; [9]
  Serum PTH: 79.608
[3]; [10]
  Serum PTH: 48.013 and 15.500 and 63.091 and 101.472 and 98.442 and 56.814 and 145.553 and 109.841 and 112.583 and 44.766
[3]; [11]
  Serum PTH: 140.908
[3]; [12]
  Serum PTH: 61.596 and 118.199 and 215.679 and 200.323 and 159.521 and 92.828 and 169.313 and 166.494 and 115.974 and 109.149
[3]; [13]
  Serum PTH: 165.420
[3]; [14]
  Serum PTH: 193.418 and 170.704 and 168.342 and 210.841 and 173.065 and 135.125 and 169.319 and 98.407 and 166.633
[3]; [15]
  Serum PTH: 216.453
[3]; [16]
  Serum PTH: 174.106 and 258.920 and 229.591 and 209.695 and 192.029 and 200.519 and 209.009 and 246.914 and 151.294 and 292.451
[3]; [17]
  Serum PTH: 137.047
[3]; [18]
  Serum PTH: 113.627 and 116.500 and 103.304 and 199.622 and 108.780 and 152.854 and 112.730 and 224.397 and 139.120 and 99.534
[3]; [19]
  Serum PTH: 102.683
[3]; [20]
  Serum PTH: 56.632 and 140.686 and 84.483 and 109.613
[3]; [21]
  Serum PTH: 15.500 and 54.018
[3]; [22]
  Serum PTH: 42.818 and 15.500 and 32.934
[3]; [23]
  Serum PTH: 141.716 and 112.265 and 135.633 and 62.560
[3]; [24]
  Serum PTH: 155.316 and 207.503 and 133.171
[3]; [25]
  Serum PTH: 158.155 and 206.865 and 189.885 and 126.682
[3]; [26]
  Serum PTH: 109.678 and 94.507 and 141.634 and 226.462
[3]; [27]
  Doses that significantly reduced the serum PTH level: ≥ 1 mg/kg
[4]; [5]
  Serum Ca: 11.5
[4]; [6]
  Serum Ca: 14.6 and 10.4 and 11.2 and 10.8 and 12.0 and 11.0 and 11.4
[4]; [7]
  Serum Ca: 10.5
[4]; [8]
  Serum Ca: 10.4 and 10.8 and 10.0 and 10.6 and 10.2
[4]; [9]
  Serum Ca: 10.3
[4]; [10]
  Serum Ca: 10.4 and 10.2 and 10.0 and 10.6
[4]; [11]
  Serum Ca: 9.9
[4]; [12]
  Serum Ca: 8.0 and 10.2 and 9.8 and 10.4 and 10.0
[4]; [13]
  Serum Ca: 10.0
[4]; [14]
  Serum Ca: 9.6 and 9.4 and 10.0 and 10.4 and 10.2
[4]; [15]
  Serum Ca: 10.1
[4]; [16]
  Serum Ca: 10.0 and 10.4 and 10.2 and 9.8
[4]; [17]
  Serum Ca: 12.1
[4]; [18]
  Serum Ca: 12.2 and 11.8 and 11.2 and 12.6 and 11.4 and 13.0 and 11.0 and 12.4
[4]; [19]
  Serum Ca: 11.1
[4]; [20]
  Serum Ca: 11.2 and 9.4 and 11.4
[4]; cinacalcet 3 mg/kg oral, 0.5 h, group mean of 10 rats
  Serum Ca: 10.6
[4]; [21]
  Serum Ca: 10.8 and 10.6 and 11.2 and 10.2
[4]; cinacalcet 3 mg/kg oral, 2 h, group mean of 10 rats
  Serum Ca: 9.8
[4]; [22]
  Serum Ca: 9.8 and 8.6 and 10.0
[4]; cinacalcet 3 mg/kg oral, 4 h, group mean of 10 rats
  Serum Ca: 9.3
[4]; [23]
  Serum Ca: 9.2 and 8.8 and 9.4
[4]; cinacalcet 3 mg/kg oral, 6 h, group mean of 10 rats
  Serum Ca: 9.3
[4]; [24]
  Serum Ca: 9.4 and 8.8 and 9.6
[4]; cinacalcet 3 mg/kg oral, 8 h, group mean of 10 rats
  Serum Ca: 9.7
[4]; [25]
  Serum Ca: 9.6 and 9.2 and 9.8
[4]; cinacalcet 3 mg/kg oral, 24 h, group mean of 10 rats
  Serum Ca: 12.1
[4]; [26]
  Serum Ca: 12.0 and 11.2 and 11.6
[4]; cinacalcet 10 mg/kg oral, 0 h, individual rat
  Serum Ca: 9.6 and 11.4 and 10.6 and 11.2
[4]; cinacalcet 10 mg/kg oral, 0.5 h, individual rat
  Serum Ca: 10.0 and 10.2 and 10.8 and 9.8
[4]; cinacalcet 10 mg/kg oral, 2 h, individual rat
  Serum Ca: 8.6 and 9.6 and 9.4 and 9.2
[4]; cinacalcet 10 mg/kg oral, 4 h, individual rat
  Serum Ca: 8.2 and 9.2 and 8.8
[4]; cinacalcet 10 mg/kg oral, 6 h, individual rat
  Serum Ca: 8.0 and 8.8 and 8.6
[4]; cinacalcet 10 mg/kg oral, 8 h, individual rat
  Serum Ca: 8.6 and 10.4 and 8.4 and 8.8
[4]; cinacalcet 10 mg/kg oral, 24 h, individual rat
  Serum Ca: 11.4 and 11.6 and 11.0 and 10.2
[4]; [27]
  Doses that significantly reduced the serum calcium level: ≥ 1 mg/kg
